The test system of one assay is A. baumannii ATCC 19606. The experiment in a line: microbe, parasite or virus in culture. It is filed as cell-based. The conditions noted are these: Acinetobacter baumannii, ATCC19606, read-out: MIC, A. baumannii ATCC 19606.
The next assay has as its system A. baumannii CDC-0083. Kind of assay: microbe, parasite or virus in culture. It is filed as cell-based. The conditions noted are these: Acinetobacter baumannii, CDC0083, read-out: MIC, A. baumannii CDC-0083.
A further assay relates to P. aeruginosa CDC-0054. The experiment in a line: microbe, parasite or virus in culture. It is filed as cell-based. The conditions noted are these: Pseudomonas aeruginosa, CDC0054, read-out: Minimum inhibitory concentration, P. aeruginosa CDC-0054.
For assay [1], the system named is P. aeruginosa (ΔmexAB-oprM). Kind of assay: Broth microdilution MIC in iron-depleted CAMHB (IDM). The settings on record: Pseudomonas aeruginosa, read-out: Minimum inhibitory concentration, P. aeruginosa ΔmexAB-oprM. It is filed as cell-based.
Assay [2] has as its target T1, PBP3 from Acinetobacter baumannii (ATCC 19606) (Acinetobacter baumannii, UniProt A0ABX6CK25).
T1 sequence (A0ABX6CK25 64-610): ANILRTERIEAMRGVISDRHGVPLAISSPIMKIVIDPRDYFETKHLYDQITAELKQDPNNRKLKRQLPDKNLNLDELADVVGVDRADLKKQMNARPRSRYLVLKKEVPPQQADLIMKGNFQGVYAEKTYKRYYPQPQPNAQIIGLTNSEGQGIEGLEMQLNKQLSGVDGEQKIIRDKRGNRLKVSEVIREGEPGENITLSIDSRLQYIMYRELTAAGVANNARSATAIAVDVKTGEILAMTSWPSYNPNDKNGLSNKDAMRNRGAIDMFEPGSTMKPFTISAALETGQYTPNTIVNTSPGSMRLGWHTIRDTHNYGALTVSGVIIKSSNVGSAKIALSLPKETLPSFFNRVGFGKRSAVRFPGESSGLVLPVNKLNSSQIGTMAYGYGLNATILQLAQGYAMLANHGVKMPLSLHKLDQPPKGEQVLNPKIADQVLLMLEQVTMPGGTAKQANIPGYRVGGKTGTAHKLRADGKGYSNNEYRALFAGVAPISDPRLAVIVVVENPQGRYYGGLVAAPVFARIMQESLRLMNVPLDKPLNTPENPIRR
The experiment in a line: Bocillin-FL fluorescence polarization competition binding, A. baumannii PBP3. The conditions noted are these: fluorescence polarization competition binding assay using Bocillin-FL; read-out: A. baumannii PBP3 Potency. The source says: (§1) To determine the ability of boronic acid-based test PBP inhibitors to bind Penicillin Binding Proteins (PBPs), Bocillin-FL (fluorescently-labeled penicillin V; ThermoFisher Scientific) was used in a fluorescence polarization (FP) competition binding assay to assess inhibitor binding to PBP3 from Escherichia coli (K-12), PBP3 from Pseudomonas aeruginosa (PAO1), PBP1a and PBP3 from Acinetobacter baumannii (ATCC 19606), and PBP2 from Neisseria gonorrhoeae (FA19). PBPs were cloned and purified as described previously (E. coli PBP3, King, D. T, et al., ACS Infectious Diseases 2015, 1, 175-184; P. aeruginosa PBP3, Han et. al., PNAS 2010, 107 (51), 22002-22007; A. baumannii PBPs, Penwell et. al., Antimicrob. Agents Chemother. 2015, 59 (3), 1680-1689; N. gonorrhoeae PBP2, Singh et. al., J. Biol. Chem. 2019, 294 (38), 14020-14032). To establish assay conditions for competition binding, enzyme titration/saturation binding experiments were initially performed. Bocillin-FL was prepared at 0.2 μM in a buffer comprised of 50 mM Hepes (pH 8.0), 300 mM NaCl and 10% (v/v) glycerol for reactions with E. coli, P. aeruginosa and N. gonorrhoeae PBPs, and 25 mM Tris (pH 8.0), 200 mM NaCl, 10% (v/v) glycerol and 0.005% (v/v) Tween 20 for reactions with A. baumannii PBPs. Saturation binding was performed by mixing 40 μl of PBP solutions ranging in concentrations from 0-24 μM with 40 μl of the 0.2 μM Bocillin-FL solution, in individual wells of a black 384-well microplate. FP was measured immediately upon mixing (Excitation, 490 nm; Emission, 520 nm; g-factor, 0.96), using a Cytation3 (BioTek) microplate reader and measured continuously for up to 120 minutes. The FP response stabilized after 15 minutes for P. aeruginosa and A. baumannii PBP3, 30 minutes for E. coli PBP3 and A. baumannii PBP1a, and less than 1 minute for N. gonorrhoeae PBP2. […] The competition binding assay (80 μl final volume) was validated using beta-lactams and PBPs at final concentrations of: 1.5 μM for E. coli PBP3; 0.75 μM for P. aeruginosa PBP3; 1 μM for A. baumannii PBP1a; 0.2 μM for A. baumannii PBP3; and 0.25 μM for N. gonorrhoeae PBP2. Bocillin-FL was at 0.1 μM (0.05 μM with A. baumannii PBP1a) and beta-lactam concentrations ranged from 0-1,000 μM. E. coli PBP3 was incubated with increasing concentrations of ampicillin in a black 384-well microplate (Corning) for 30 minutes. P. aeruginosa PBP3 was incubated for 15 minutes with aztreonam, whereas A. baumannii PBP1a and PBP3 were incubated for 15 minutes with meropenem, and then Bocillin-FL was added followed immediately by the FP measurement for up to 60 minutes. […] The beta-lactam potency was reported as the concentration of beta-lactam required to reduce the amount of PBP bound-Bocillin-FL by 50% (EC50). […] The EC50 of aztreonam was determined to be <0.5 μM for P. aeruginosa PBP3. […] Binding assays for boronic acid PBP inhibitors were performed in an identical fashion for the respective PBPs.
For orientation: In fluorescence polarisation assays a small probe gives low polarisation when free and higher when bound to something large.

Another assay deals with A. baumannii 1258916. The experiment in a line: microbe, parasite or virus in culture. Format: cell-based, Acinetobacter baumannii. The settings on record: Acinetobacter baumannii, 1258916, read-out: MIC, A. baumannii 1258916.
The next assay deals with P. aeruginosa CDC-0110. Kind of assay: microbe, parasite or virus in culture. Format: cell-based. The conditions noted are these: Pseudomonas aeruginosa, CDC0110, read-out: Minimum inhibitory concentration, P. aeruginosa CDC-0110.
Assay [3] has as its system B. humptydooensis ATCC BAA-2767. The experiment in a line: microbe, parasite or virus in culture. It is filed as cell-based. The conditions noted are these: Burkholderia humptydooensis, ATCCBAA2767, read-out: Minimum inhibitory concentration (MIC), B. humptydooensis ATCC BAA-2767.
For a further assay, the system named is A. baumannii ATCC 17978. Kind of assay: microbe, parasite or virus in culture. Format: cell-based. The conditions noted are these: Acinetobacter baumannii, ATCC17978, read-out: MIC, A. baumannii ATCC 17978.
The next assay relates to P. aeruginosa CDC-0095. Kind of assay: microbe, parasite or virus in culture. It is filed as cell-based. The conditions noted are these: Pseudomonas aeruginosa, CDC0095, read-out: Minimum inhibitory concentration, P. aeruginosa CDC-0095.
For another assay, the system named is P. aeruginosa ATCC 35151. The experiment in a line: microbe, parasite or virus in culture. It is filed as cell-based. The settings on record: Pseudomonas aeruginosa, ATCC35151, read-out: Minimum inhibitory concentration, P. aeruginosa ATCC 35151.
The test system of another assay is A. baumannii CDC-0033. The experiment in a line: microbe, parasite or virus in culture. Format: cell-based. The settings on record: Acinetobacter baumannii, CDC0033, read-out: MIC, A. baumannii CDC-0033.
The subject of another assay is A. baumannii CDC-0045. The experiment in a line: microbe, parasite or virus in culture. The conditions noted are these: Acinetobacter baumannii, CDC0045, read-out: MIC, A. baumannii CDC-0045. It is filed as cell-based.
A further assay has as its system A. baumannii CDC-0036. Kind of assay: microbe, parasite or virus in culture. Format: cell-based. The conditions noted are these: Acinetobacter baumannii, CDC0036, read-out: MIC, A. baumannii CDC-0036.
The subject of another assay is P. aeruginosa ATCC 27853. Kind of assay: microbe, parasite or virus in culture. It is filed as cell-based. The settings on record: Pseudomonas aeruginosa, ATCC27853, read-out: Minimum inhibitory concentration, P. aeruginosa ATCC 27853.
The subject of another assay is P. aeruginosa CDC-0090. Kind of assay: microbe, parasite or virus in culture. Format: cell-based. The conditions noted are these: Pseudomonas aeruginosa, CDC0090, read-out: Minimum inhibitory concentration, P. aeruginosa CDC-0090.
Assay [4] concerns B. thailandensis ATCC 700388. Kind of assay: microbe, parasite or virus in culture. Format: cell-based. The conditions noted are these: Burkholderia thailandensis, ATCC700388, read-out: Minimum inhibitory concentration (MIC), B. thailandensis ATCC 700388.
In assay [5] the target is T2, PBP1a from Acinetobacter baumannii (ATCC 19606) (Acinetobacter baumannii, UniProt A0ABX6CK30).
T2 sequence (A0ABX6CK30 1-851): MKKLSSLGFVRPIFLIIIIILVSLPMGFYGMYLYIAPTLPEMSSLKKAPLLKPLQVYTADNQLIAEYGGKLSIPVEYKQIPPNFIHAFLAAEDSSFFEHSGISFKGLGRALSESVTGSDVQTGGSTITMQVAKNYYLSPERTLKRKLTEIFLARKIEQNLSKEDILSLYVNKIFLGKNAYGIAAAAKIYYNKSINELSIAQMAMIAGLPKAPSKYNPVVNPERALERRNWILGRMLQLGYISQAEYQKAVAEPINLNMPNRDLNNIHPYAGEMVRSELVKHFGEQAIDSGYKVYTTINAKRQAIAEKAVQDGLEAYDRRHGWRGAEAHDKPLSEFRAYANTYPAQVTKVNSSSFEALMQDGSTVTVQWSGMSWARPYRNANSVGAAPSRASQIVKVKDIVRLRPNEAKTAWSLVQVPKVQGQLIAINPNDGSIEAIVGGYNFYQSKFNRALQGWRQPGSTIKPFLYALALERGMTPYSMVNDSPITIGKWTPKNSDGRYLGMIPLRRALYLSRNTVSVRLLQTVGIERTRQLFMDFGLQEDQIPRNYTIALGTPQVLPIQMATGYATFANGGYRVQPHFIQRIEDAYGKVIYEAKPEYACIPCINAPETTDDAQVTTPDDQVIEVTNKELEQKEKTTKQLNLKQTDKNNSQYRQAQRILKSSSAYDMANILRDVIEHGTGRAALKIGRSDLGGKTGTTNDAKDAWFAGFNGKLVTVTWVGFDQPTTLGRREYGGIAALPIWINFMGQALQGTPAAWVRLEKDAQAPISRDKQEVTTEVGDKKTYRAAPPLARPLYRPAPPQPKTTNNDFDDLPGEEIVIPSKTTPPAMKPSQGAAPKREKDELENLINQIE
The experiment in a line: Bocillin-FL fluorescence polarization competition binding, A. baumannii PBP1a.
Text: as §1

In brackets after ≈: the same amount, converted by molar mass.

For `O=C(O)c1c(F)ccc2c1OB(O)[C@@H](NC(=O)[C@@H](NC(=O)N1CCN(Cc3ccc(O)c(O)c3Cl)C(=O)C1=O)c1ccc(P(=O)(O)O)cc1)C2` (single isomer, unassigned) [Example 161], the MIC is below 1 µg/mL with A. baumannii ATCC 19606; 8 to 16 µg/mL (≈ 10.9 to 21.8 µM) in the assay with A. baumannii CDC-0083; below 1 µg/mL in the assay on P. aeruginosa CDC-0054; 2 to 4 µg/mL (≈ 2.72 to 5.44 µM) in assay [1]; above 128 µg/mL in the assay with A. baumannii 1258916; below 1 µg/mL in the assay with P. aeruginosa CDC-0110. Besides, the MIC in assay [3] is below 1 µg/mL; in the assay with A. baumannii ATCC 17978 it was below 1 µg/mL; in the assay with P. aeruginosa CDC-0095 it was below 1 µg/mL; in the assay with P. aeruginosa ATCC 35151, below 1 µg/mL; in the assay with A. baumannii CDC-0033 it was 8 to 16 µg/mL (≈ 10.9 to 21.8 µM); in the assay with A. baumannii CDC-0045, above 128 µg/mL. The MIC was above 128 µg/mL in the assay with A. baumannii CDC-0036, 2 to 4 µg/mL (≈ 2.72 to 5.44 µM) with P. aeruginosa ATCC 27853, above 128 µg/mL in the assay with P. aeruginosa CDC-0090 and below 1 µg/mL in [4]. The IC50 in assay [2] is below 10 µM.
`C[C@@H](O)[C@H]1C(=O)N2C(C(=O)O)=C(S[C@@H]3CN[C@H](C(=O)N(C)C)C3)[C@H](C)[C@H]12` [meropenem, reference compound]: in assay [5], the 50% effective concentration (EC50) (as a rule, the concentration that produces a half-maximal response) is below 0.5 µM.

Source of the values: patent US20240270762A1, “PENICILLIN-BINDING PROTEIN INHIBITORS” (priority 2021, published 2024).
